From US20250122221A1 (NANJING ZAIMING PHARMACEUTICAL CO., LTD., priority 2022, published 2025)

Target: N-terminal active peptide segment (MI-N899) of POLQ with ATPase activity (Homo sapiens (Human), UniProt O75417)
Assay: POLQ enzyme activity inhibition experiment (ATPase, NADH-coupled, OD 340 nm)
Type: biochemical
Settings: 100 nM POLQ (N), 100 μM ATP, 300 nM dT50
Experimental: The Envision microplate reader from Perkin Elmer Inc was used to measure the reduction of OD value of NADH at 340 nm, thus reflecting the enzyme activity. Experimental method: The POLQ enzyme was diluted to 100 nM with a reaction buffer (20 mM Tris HCl (pH 7.80), 80 mM KCl, 10 mM MgCl2, 1 mM DTT, 0.01% w/v bovine serum albumin, 0.01% v/v Tween-20, and 5% v/v glycerol). The compounds to be tested were diluted to different concentrations in dimethyl sulfoxide (DMSO) using the Echo 650 pipetting system, and transferred to a 384-well plate, 20 μL/well of 100 nM POLQ was added, and the mixture was incubated at room temperature for 15 minutes. A reaction mixture solution was formulated, and the concentration of each component in the reaction mixture solution was: 100 μM ATP, 300 nM […], 300 μM NADH, 6 mM PEP, 10 U/mL lactate dehydrogenase and 20 U/mL pyruvate kinase. 20 μL/well of reaction mixture solution was added to start the enzyme reaction. […] The concentration range was from 10 μM to 0.0005 μM, and the final concentration of DMSO in the system was 0.2% v/v. The 384-well plate was reacted at room temperature for 20 minutes, and then the OD value at 340 nm was read with an Envision microplate reader. The inhibition rate was calculated, and XLfit software was used to perform fitting to obtain IC50 of the compounds. In the experiment, a blank group and a DMSO group were set up, respectively.

Sequence of N-terminal active peptide segment (MI-N899) of POLQ with ATPase activity (O75417 1-899 limits assumed): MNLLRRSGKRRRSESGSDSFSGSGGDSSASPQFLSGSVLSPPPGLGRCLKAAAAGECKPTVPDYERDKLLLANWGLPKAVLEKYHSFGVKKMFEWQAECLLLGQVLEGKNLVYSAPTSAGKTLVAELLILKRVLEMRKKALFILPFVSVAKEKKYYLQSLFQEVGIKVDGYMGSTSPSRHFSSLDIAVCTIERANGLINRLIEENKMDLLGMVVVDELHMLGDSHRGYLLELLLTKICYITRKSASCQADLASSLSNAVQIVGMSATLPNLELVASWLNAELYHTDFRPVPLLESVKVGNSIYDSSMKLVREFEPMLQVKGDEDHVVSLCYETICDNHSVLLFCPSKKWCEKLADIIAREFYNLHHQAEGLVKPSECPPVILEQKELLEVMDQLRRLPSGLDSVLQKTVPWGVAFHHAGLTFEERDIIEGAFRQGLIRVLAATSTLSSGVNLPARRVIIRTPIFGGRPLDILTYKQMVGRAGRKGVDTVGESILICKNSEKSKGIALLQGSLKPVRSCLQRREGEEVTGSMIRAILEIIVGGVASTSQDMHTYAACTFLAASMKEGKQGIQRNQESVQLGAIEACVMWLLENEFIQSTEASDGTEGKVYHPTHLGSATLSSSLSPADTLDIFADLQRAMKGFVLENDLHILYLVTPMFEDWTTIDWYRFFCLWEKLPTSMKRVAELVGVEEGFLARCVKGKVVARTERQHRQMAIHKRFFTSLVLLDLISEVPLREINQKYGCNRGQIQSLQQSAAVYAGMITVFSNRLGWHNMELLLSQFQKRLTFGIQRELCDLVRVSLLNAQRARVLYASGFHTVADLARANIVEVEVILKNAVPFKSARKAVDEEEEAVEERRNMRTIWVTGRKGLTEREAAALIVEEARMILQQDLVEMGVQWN

| SMILES | IC50 [nM] |
| --- | --- |
| COc1ccccc1-c1cnccc1C(=O)Nc1nc2ccc(-c3ccc(Cl)cc3)nc2s1 [Compound 1, N-(5-(4-chlorophenyl)thiazolo[5,4-b]pyridin-2-yl)-3-(2-methoxyphenyl)pyridine-4-carboxamide] | 100 to 500 |
| COc1ccccc1-c1cnccc1C(=O)Nc1nc2ncc(-c3ccc(Cl)cc3)nc2s1 [Compound 2, N-(6-(4-chlorophenyl)thiazolo[4,5-b]pyrazin-2-yl)-3-(2-methoxyphenyl)pyridine-4-carboxamide] | < 100 |
| COc1cccc(F)c1-c1cnccc1C(=O)Nc1nc2ncc(-c3ccc(Cl)cc3)nc2s1 [Compound 3, N-(6-(4-chlorophenyl)thiazolo[4,5-b]pyrazin-2-yl)-3-(2-fluoro-6-methoxyphenyl)pyridine-4-carboxamide] | < 100 |
| COc1ccccc1-c1cc(C)ncc1C(=O)Nc1nc2ncc(-c3ccc(Cl)cc3)nc2s1 [Compound 4] | < 100 |
| COc1ccccc1-c1cnccc1C(=O)Nc1nc2ncc(-c3cccc(Cl)c3)nc2s1 [Compound 5, N-(6-(3-chlorophenyl)thiazolo[4,5-b]pyrazin-2-yl)-3-(2-methoxyphenyl)pyridine-4-carboxamide] | < 100 |
| COc1ccccc1-c1cnccc1C(=O)Nc1nc2ncc(-c3ccc(C)cc3)nc2s1 [Compound 6, 3-(2-methoxyphenyl)-N-(6-(4-methylphenyl)thiazolo[4,5-b]pyrazin-2-yl)pyridine-4-carboxamide] | < 100 |
| COc1ccc(-c2cnc3nc(NC(=O)c4ccncc4-c4ccccc4OC)sc3n2)cc1 [Compound 7, 3-(2-methoxyphenyl)-N-(6-(4-methoxyphenyl)thiazolo[4,5-b]pyrazin-2-yl)pyridine-4-carboxamide] | < 100 |
| COc1ccccc1-c1cnccc1C(=O)Nc1nc2cnc(-c3ccc(Cl)cc3)nc2s1 [Compound 8, N-(5-(4-chlorophenyl)thiazolo[5,4-d]pyrimidin-2-yl)-3-(2-methoxyphenyl)pyridine-4-carboxamide] | < 100 |
| COc1ccccc1-c1cnccc1C(=O)Nc1nc2ncc(-c3ccc(Cl)cc3)cc2s1 [Compound 10, N-(6-(4-chlorophenyl)thiazolo[4,5-b]pyridin-2-yl)-3-(2-methoxyphenyl)isonicotinamide] | < 100 |
| COc1ccccc1-c1cnccc1C(=O)Nc1nc2ncc(-c3ccc(C#N)nc3)nc2s1 [Compound 11, N-(6-(6-cyanopyridin-3-yl)thiazolo[4,5-b]pyrazin-2-yl)-3-(2-methoxyphenyl)isonicotinamide] | < 100 |
| COc1ccccc1-c1cnccc1C(=O)Nc1nc2ncc(-c3ccc(C#N)c(F)c3)nc2s1 [Compound 12, N-(6-(4-cyano-3-fluorophenyl)thiazolo[4,5-b]pyrazin-2-yl)-3-(2-methoxyphenyl)isonicotinamide] | < 100 |
| COc1ccccc1-c1cnccc1C(=O)Nc1nc2ncc(-c3ccc(C#N)cc3F)nc2s1 [Compound 13, N-(6-(4-cyano-2-fluorophenyl)thiazolo[4,5-b]pyrazin-2-yl)-3-(2-methoxyphenyl)isonicotinamide] | < 100 |
| COc1cc(-c2cnc3nc(NC(=O)c4ccncc4-c4ccccc4OC)sc3n2)ccc1C#N [Compound 14, N-(6-(4-cyano-3-methoxyphenyl)thiazolo[4,5-b]pyrazin-2-yl)-3-(2-methoxyphenyl)isonicotinamide] | < 100 |
| COc1cc(C#N)ccc1-c1cnc2nc(NC(=O)c3ccncc3-c3ccccc3OC)sc2n1 [Compound 15, N-(6-(4-cyano-2-methoxyphenyl)thiazolo[4,5-b]pyrazin-2-yl)-3-(2-methoxyphenyl)isonicotinamide] | < 100 |
| COc1cccc(F)c1-c1cc(C#N)ncc1C(=O)Nc1nc2ncc(-c3ccc(Cl)cc3)nc2s1 [Compound 17, N-(6-(4-chlorophenyl)thiazolo[4,5-b]pyrazin-2-yl)-6-cyano-4-(2-fluoro-6-methoxyphenyl)nicotinamide] | < 100 |
| N#Cc1cc(-c2ccccc2OC(F)F)c(C(=O)Nc2nc3ncc(-c4ccc(Cl)cc4)nc3s2)cn1 [Compound 18, N-(6-(4-chlorophenyl)thiazolo[4,5-b]pyrazin-2-yl)-6-cyano-4-(2-(difluoromethoxy)phenyl)nicotinamide] | < 100 |
| COc1ccccc1-c1cc(C#N)ncc1C(=O)Nc1nc2ncc(-c3ccc(=O)n(C)c3)nc2s1 [Compound 19, 6-cyano-4-(2-methoxyphenyl)-N-(6-(1-methyl-6-oxo-1,6-dihydropyridin-3-yl)thiazolo[4,5-b]pyrazin-2-yl)nicotinamide] | < 100 |

| SMILES | IC50 [nM] |
| --- | --- |
| COc1ccc(C#N)cc1-c1cc(C)ncc1C(=O)Nc1nc2ncc(-c3ccc(C4CC4)cn3)nc2s1 [Compound 22, 4-(5-cyano-2-methoxyphenyl)-N-(6-(5-cyclopropylpyridin-2-yl)thiazolo[4,5-b]pyrazin-2-yl)-6-methylnicotinamide] | < 100 |
| COc1ccccc1-c1cc(C#N)ncc1C(=O)Nc1nc2ncc(-c3ccc(Cl)cc3)nc2s1 [Compound 28, N-(6-(4-chlorophenyl)thiazolo[4,5-b]pyrazin-2-yl)-6-cyano-4-(2-methoxyphenyl)pyridine-3-carboxamide] | < 100 |
| C#Cc1ccccc1-c1cnccc1C(=O)Nc1nc2ncc(-c3ccc(Cl)cc3)nc2s1 [Compound 29, N-(6-(4-chlorophenyl)thiazolo[4,5-b]pyrazin-2-yl)-3-(2-ethynylphenyl)pyridine-4-carboxamide] | < 100 |
| COc1ccccc1-c1cc(C)ncc1C(=O)Nc1nc2ncc(-c3ccc(C#N)cc3)nc2s1 [Compound 31, N-(6-(4-cyanophenyl)thiazolo[4,5-b]pyrazin-2-yl)-4-(2-methoxyphenyl)-6-methylpyridine-3-carboxamide] | < 100 |
| COc1ccccc1-c1cc(C#N)ncc1C(=O)Nc1nc2ncc(-c3ccc(C#N)cc3)nc2s1 [Compound 35, 6-cyano-N-(6-(4-cyanophenyl)thiazolo[4,5-b]pyrazin-2-yl)-4-(2-methoxyphenyl)pyridine-3-carboxamide] | < 100 |
| COc1ccccc1-c1cc(C(F)(F)F)ncc1C(=O)Nc1nc2ncc(-c3ccc(C#N)cc3)nc2s1 [Compound 36, N-(6-(4-cyanophenyl)thiazolo[4,5-b]pyrazin-2-yl)-4-(2-methoxyphenyl)-6-(trifluoromethyl)pyridine-3-carboxamide] | < 100 |
| N#Cc1ccc(C(=O)Nc2nc3ncc(-c4ccc(Cl)cc4)nc3s2)c(-c2ccccc2C#N)c1 [Compound 37, N-(6-(4-chlorophenyl)thiazolo[4,5-b]pyrazin-2-yl)-2′,5-dicyano-[1,1′-biphenyl]-2-carboxamide] | < 100 |
| C#Cc1ccccc1-c1cc(C#N)ncc1C(=O)Nc1nc2ncc(-c3ccc(Cl)cc3)nc2s1 [Compound 38, N-(6-(4-chlorophenyl)thiazolo[4,5-b]pyrazin-2-yl)-6-cyano-4-(2-ethynylphenyl)pyridine-3-carboxamide] | < 100 |
| N#Cc1ccc(-c2cnc3nc(NC(=O)c4cnc(C#N)cc4N4CCOCC4)sc3n2)cc1 [Compound 39, 6-cyano-N-(6-(4-cyanophenyl)thiazolo[4,5-b]pyrazin-2-yl)-4-morpholinopyridine-3-carboxamide] | < 100 |
| COc1cc(C#N)ccc1-c1cnccc1C(=O)Nc1nc2ncc(-c3ccc(C#N)cc3)nc2s1 [Compound 40, 3-(4-cyano-2-methoxyphenyl)-N-(6-(4-cyanophenyl)thiazolo[4,5-b]pyrazin-2-yl)pyridine-4-carboxamide] | < 100 |
| COc1ccccc1-c1cn2ccnc2cc1C(=O)Nc1nc2ncc(-c3ccc(C#N)cc3)nc2s1 [Compound 41, N-(6-(4-cyanophenyl)thiazolo[4,5-b]pyrazin-2-yl)-6-(2-methoxyphenyl)imidazo[1,2-a]pyridine-7-carboxamide] | < 100 |
| C#Cc1ccccc1-c1cc(Cl)ncc1C(=O)Nc1nc2ncc(-c3ccc(C#N)cc3)nc2s1 [Compound 43, 6-chloro-N-(6-(4-cyanophenyl)thiazolo[4,5-b]pyrazin-2-yl)-4-(2-ethynylphenyl)pyridine-3-carboxamide] | < 100 |
| COc1ncccc1-c1cc(C)ncc1C(=O)Nc1nc2ncc(-c3ccc(C#N)cc3)nc2s1 [Compound 44, N-(6-(4-cyanophenyl)thiazolo[4,5-b]pyrazin-2-yl)-2-methoxy-6′-methyl-[3,4′-bipyridine]-3′-carboxamide] | < 100 |
| COc1cnccc1-c1cc(C)ncc1C(=O)Nc1nc2ncc(-c3ccc(C#N)cc3)nc2s1 [Compound 45, N-(6-(4-cyanophenyl)thiazolo[4,5-b]pyrazin-2-yl)-3′-methoxy-6-methyl-[4,4′-bipyridine]-3-carboxamide] | < 100 |
| C#Cc1cc(F)ccc1-c1cc(C)ncc1C(=O)Nc1nc2ncc(-c3ccc(C#N)cc3)nc2s1 [Compound 47, N-(6-(4-cyanophenyl)thiazolo[4,5-b]pyrazin-2-yl)-4-(2-ethynyl-4-fluorophenyl)-6-methylpyridine-3-carboxamide] | < 100 |
| C#Cc1cccc(F)c1-c1cc(C)ncc1C(=O)Nc1nc2ncc(-c3ccc(C#N)cc3)nc2s1 [Compound 49, N-(6-(4-cyanophenyl)thiazolo[4,5-b]pyrazin-2-yl)-4-(2-ethynyl-6-fluorophenyl)-6-methylpyridine-3-carboxamide] | < 100 |
